Experimental findings from US11312712B2, “Azabenzimidazoles and their use as AMPA receptor modulators” (Janssen Pharmaceutica NV, priority 2015, dated 2022) are described below.

Chain of GluA1o-γ8 (GRIA1o-CACNG8 fusion construct) (P42261 other isoform, or with tags, fused parts or gaps): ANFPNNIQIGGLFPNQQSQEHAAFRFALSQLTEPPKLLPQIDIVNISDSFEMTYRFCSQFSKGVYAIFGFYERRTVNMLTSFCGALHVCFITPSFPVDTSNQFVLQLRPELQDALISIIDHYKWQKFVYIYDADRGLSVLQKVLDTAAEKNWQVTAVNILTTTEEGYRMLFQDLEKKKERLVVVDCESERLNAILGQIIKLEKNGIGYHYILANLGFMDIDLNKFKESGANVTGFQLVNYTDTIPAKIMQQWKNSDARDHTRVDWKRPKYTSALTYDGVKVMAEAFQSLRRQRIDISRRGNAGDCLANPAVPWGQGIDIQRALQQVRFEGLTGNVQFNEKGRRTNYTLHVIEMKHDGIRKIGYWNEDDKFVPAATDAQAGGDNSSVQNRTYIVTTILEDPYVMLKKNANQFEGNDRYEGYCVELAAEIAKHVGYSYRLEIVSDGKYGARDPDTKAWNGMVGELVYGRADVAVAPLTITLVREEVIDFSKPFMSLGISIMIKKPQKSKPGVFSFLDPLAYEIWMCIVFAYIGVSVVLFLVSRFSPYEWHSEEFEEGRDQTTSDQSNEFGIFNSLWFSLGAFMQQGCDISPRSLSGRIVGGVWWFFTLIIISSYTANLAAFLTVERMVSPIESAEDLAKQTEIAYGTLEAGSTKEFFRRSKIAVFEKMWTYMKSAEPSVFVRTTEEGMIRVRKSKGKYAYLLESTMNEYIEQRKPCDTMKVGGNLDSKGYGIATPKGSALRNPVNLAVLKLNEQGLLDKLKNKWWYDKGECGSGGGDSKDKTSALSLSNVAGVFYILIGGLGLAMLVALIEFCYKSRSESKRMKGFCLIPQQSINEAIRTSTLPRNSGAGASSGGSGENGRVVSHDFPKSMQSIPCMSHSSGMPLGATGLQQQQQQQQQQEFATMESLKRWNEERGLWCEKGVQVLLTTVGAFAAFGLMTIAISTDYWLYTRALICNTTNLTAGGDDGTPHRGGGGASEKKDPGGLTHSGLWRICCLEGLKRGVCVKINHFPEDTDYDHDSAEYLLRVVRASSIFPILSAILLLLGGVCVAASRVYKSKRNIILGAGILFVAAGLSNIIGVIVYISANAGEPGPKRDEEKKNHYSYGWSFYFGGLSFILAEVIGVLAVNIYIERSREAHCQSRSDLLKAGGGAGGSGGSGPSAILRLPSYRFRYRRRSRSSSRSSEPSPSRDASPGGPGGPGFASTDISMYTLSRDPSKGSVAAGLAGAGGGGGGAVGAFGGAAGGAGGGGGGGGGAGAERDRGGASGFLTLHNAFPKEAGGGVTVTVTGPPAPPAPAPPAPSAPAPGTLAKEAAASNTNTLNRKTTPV

For this test, the target named is GluA1o-γ8 (GRIA1o-CACNG8 fusion construct) (Homo sapiens (Human), UniProt P42261+Q8WXS5). Description: Calcium flux assay (FLIPR), inhibition of TARP γ8 dependent AMPA receptor activity. The test is classed as cell-based. The following applies: GluA1o-γ8 (GRIA1o-CACNG8 fusion) in HEK293 cells, calcium flux after 15 μM glutamate. In a few lines:
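Glutamate (15 μM) was added to a stable HEK293 line carrying the GluA1o–γ8 fusion, which had been preincubated with compound and calcium dye in HEPES buffer, pH 7.4. Normalized FLIPR fluorescence (no compound vs 10 μM CP465022) was fitted with four parameters; pIC50 is the midpoint's negative log.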
Background: Calcium assays in cells follow changes in intracellular calcium, usually with a dye or a luminescent sensor.
For `CC(C)c1cc2ccc(C(F)(F)F)nc2n1-c1cnc2c(c1)CC(=O)N2` [Example 401, 5-[2-Isopropyl-6-(trifluoromethyl)pyrrolo[2,3-b]pyridin-1-yl]-1,3-dihydropyrrolo[2,3-b]pyridin-2-one], the IC50 (as a rule, the midpoint of a concentration-inhibition curve) was 0.0316 nM. As for `CC(C)c1nc2cc(F)cnc2n1-c1cc(Cl)c2[nH]ncc2c1` [Example 300, 3-(7-Chloro-1H-indazol-5-yl)-6-fluoro-2-isopropyl-imidazo[4,5-b]pyridine], the figure is 2.51 nM; as for `Cc1cc2ccc(C(F)(F)F)nc2n1-c1cc(F)c2c(c1)CC(=O)N2` [Example 364, 7-Fluoro-5-[2-methyl-6-(trifluoromethyl)pyrrolo[2,3-b]pyridin-1-yl]indolin-2-one], 3160 nM. As for `CCC(C)c1nc2ccc(C(F)(F)F)nc2n1-c1ccc2c(c1)CC(=O)N2` (racemic) [Example 96, (racemic)-5-[2-sec-Butyl-5-(trifluoromethyl)imidazo[4,5-b]pyridin-3-yl]indolin-2-one], the figure is 6.31 nM; as for `FCCOc1cc(C(F)(F)F)nc2c1nc(C(F)(F)F)n2-c1cc(Cl)c2[nH]ncc2c1` [Example 218, 3-(7-Chloro-1H-indazol-5-yl)-7-(2-fluoroethoxy)-2,5-bis(trifluoromethyl)imidazo[4,5-b]pyridine], 0.0501 nM; as for `Cc1ccnc2c1nc(C(F)(F)F)n2-c1cc(Cl)c2[nH]ncc2c1` [Example 202, 3-(7-Chloro-1H-indazol-5-yl)-7-methyl-2-(trifluoromethyl)imidazo[4,5-b]pyridine], 0.631 nM. Then `O=C1Cc2cc(-n3c(C4CC4)cc4ccc(C(F)(F)F)nc43)ccc2N1` [Example 399, 5-[2-Cyclopropyl-6-(trifluoromethyl)pyrrolo[2,3-b]pyridin-1-yl]indolin-2-one], with 0.0251 nM. As to `FC(F)(F)c1ccc2nc(C3CCCC3)n(-c3ccc4[nH]ccc4c3)c2n1` [Example 58, 2-Cyclopentyl-3-(1H-indol-5-yl)-5-(trifluoromethyl)imidazo[4,5-b]pyridine], the IC50 was 12.6 nM. Then `Cc1ccc2nc(C3CCC3)n(-c3ccc4[nH]c(=O)sc4c3)c2n1` [Example 145, 6-(2-Cyclobutyl-5-methyl-imidazo[4,5-b]pyridin-3-yl)-3H-1,3-benzothiazol-2-one], with 0.251 nM; and `CC(C)c1cc2cccnc2n1-c1cc(Cl)c2[nH]ncc2c1` [Example 356, 1-(7-Chloro-1H-indazol-5-yl)-2-isopropyl-pyrrolo[2,3-b]pyridine], with 0.02 nM; and `CNC(=O)c1nc2ccc(C(F)(F)F)nc2n1-c1ccc2[nH]ncc2c1` [Example 127, 3-(1H-Indazol-5-yl)-N-methyl-5-(trifluoromethyl)imidazo[4,5-b]pyridine-2-carboxamide], with 794 nM.

As to `CCOCc1nc2ccc(C(F)(F)F)nc2n1-c1ccc2[nH]c(=O)oc2c1` [Example 162, 6-[2-(Ethoxymethyl)-5-(trifluoromethyl)imidazo[4,5-b]pyridin-3-yl]-3H-1,3-benzoxazol-2-one], the IC50 was 631 nM. As for `Cc1ccc2c(Br)c(-c3ccccc3)n(-c3cnc4c(c3)CC(=O)N4)c2n1` [Example 393, 5-(3-Bromo-6-methyl-2-phenyl-pyrrolo[2,3-b]pyridin-1-yl)-1,3-dihydropyrrolo[2,3-b]pyridin-2-one], the figure is 3.16 nM; as for `Fc1n[nH]c2ccc(-n3c(C(F)(F)F)nc4ccc(C(F)(F)F)nc43)cc12` [Example 237, 3-(3-Fluoro-1H-indazol-5-yl)-2,5-bis(trifluoromethyl)imidazo[4,5-b]pyridine], 2.51 nM. As for `Cc1cc(-n2c(C(C)C)cc3ccc(C(F)(F)F)nc32)cc2cn[nH]c12` [Example 370, 2-Isopropyl-1-(7-methyl-1H-indazol-5-yl)-6-(trifluoromethyl)pyrrolo[2,3-b]pyridine], the figure is 0.00794 nM. Then `CCC(C)c1nc2ccc(C(F)(F)F)nc2n1-c1ccc2[nH]ncc2c1` (racemic) [Example 102, (racemic)-3-(1H-Indazol-5-yl)-2-sec-butyl-5-(trifluoromethyl)imidazo[4,5-b]pyridine], with 10 nM. As for `FC(F)c1ccc2nc(C(F)(F)F)n(-c3cc(Cl)c4[nH]ncc4c3)c2n1` [Example 324, 3-(7-Chloro-1H-indazol-5-yl)-5-(difluoromethyl)-2-(trifluoromethyl)imidazo[4,5-b]pyridine], the half-inhibitory concentration (IC50) was 0.0501 nM.

With `O=C1Cc2cc(-n3c(Cc4cnccn4)nc4ccc(C(F)(F)F)nc43)ccc2N1` [Example 57, 5-[2-(Pyrazin-2-ylmethyl)-5-(trifluoromethyl)imidazo[4,5-b]pyridin-3-yl]indolin-2-one], the IC50 was 15800 nM. As for `COc1ccc2cc(-c3ccc(F)cc3)n(-c3ccc4c(c3)CC(=O)N4)c2n1` [Example 384, 5-[2-(4-Fluorophenyl)-6-methoxy-pyrrolo[2,3-b]pyridin-1-yl]indolin-2-one], the figure is 5.01 nM; as for `c1ccc(-c2nc3cccnc3n2-c2ccc3[nH]ncc3c2)cc1` [Example 2, 3-(1H-Indazol-5-yl)-2-phenyl-imidazo[4,5-b]pyridine], 50.1 nM; as for `O=c1[nH]c2ccc(-n3c(C(F)F)cc4ccc(C(F)(F)F)nc43)cc2s1` [Example 337, 6-[2-(Difluoromethyl)-6-(trifluoromethyl)pyrrolo[2,3-b]pyridin-1-yl]-3H-1,3-benzothiazol-2-one], 0.126 nM. For `FC(F)(F)c1ccc2nc(NC3CCCCC3)n(-c3ccc4[nH]ncc4c3)c2n1` [Example 131, N-Cyclohexyl-3-(1H-indazol-5-yl)-5-(trifluoromethyl)imidazo[4,5-b]pyridin-2-amine], the IC50 was 158 nM. Then `CC(C)c1nc2ccc(C(F)(F)F)nc2n1-c1ccc2[nH]nc(F)c2c1` [Example 191, 3-(3-Fluoro-1H-indazol-5-yl)-2-isopropyl-5-(trifluoromethyl)imidazo[4,5-b]pyridine], with 3.98 nM; and `O=C1Cc2cc(-n3c(C(F)(F)F)nc4ccc(C(F)(F)F)nc43)cnc2N1` [Example 292, 5-[2,5-Bis(trifluoromethyl)imidazo[4,5-b]pyridin-3-yl]-1,3-dihydropyrrolo[2,3-b]pyridin-2-one], with 7.94 nM; and `O=c1[nH]c2ccc(-n3c(-c4ccc(F)cc4)nc4cccnc43)cc2[nH]1` [Example 21, 5-[2-(4-Fluorophenyl)imidazo[4,5-b]pyridin-3-yl]-1,3-dihydrobenzimidazol-2-one], with 10 nM.

In the case of `O=c1[nH]c2ccc(-n3c(-c4ccccc4)nc4ccc(Br)nc43)cc2s1` [Example 32, 6-(5-Bromo-2-phenyl-imidazo[4,5-b]pyridin-3-yl)-3H-1,3-benzothiazol-2-one], the IC50 is 0.501 nM. Then `FCCCc1cc2ccc(C(F)(F)F)nc2n1-c1cc(Cl)c2[nH]ncc2c1` [Example 372, 1-(7-Chloro-1H-indazol-5-yl)-2-(3-fluoropropyl)-6-(trifluoromethyl)pyrrolo[2,3-b]pyridine], with 0.0316 nM; and `CCc1nc2ccc(C(F)(F)F)nc2n1-c1ccc2[nH]c(=O)oc2c1` [Example 158, 6-[2-Ethyl-5-(trifluoromethyl)imidazo[4,5-b]pyridin-3-yl]-3H-1,3-benzoxazol-2-one], with 31.6 nM; and `O=c1[nH]c2ccc(-n3c(-c4ccccc4)nc4ccc(N5CCCCC5)nc43)cc2s1` [Example 64, 6-[2-Phenyl-5-(1-piperidyl)imidazo[4,5-b]pyridin-3-yl]-3H-1,3-benzothiazol-2-one], with 5.01 nM. As for `Cc1ccc2nc(C(C)(F)F)n(-c3cc(Cl)c4[nH]ncc4c3)c2n1` [Example 410, 3-(7-Chloro-1H-indazol-5-yl)-2-(1,1-difluoroethyl)-5-methyl-3H-imidazo[4,5-b]pyridine], the figure is 1.26 nM; as for `FC(F)(F)c1ccc(-c2nc3cccnc3n2-c2ccc3[nH]ncc3c2)cc1` [Example 176, 3-(1H-Indazol-5-yl)-2-[4-(trifluoromethyl)phenyl]imidazo[4,5-b]pyridine], 10000 nM; as for `Cc1cc(-n2c(C(C)C)cc3cc(F)cnc32)cc2c1NC(=O)C2` [Example 420, 5-(5-Fluoro-2-isopropyl-1H-pyrrolo[2,3-b]pyridin-1-yl)-7-methylindolin-2-one], 0.126 nM. Then `CCC(F)(F)c1nc2ccc(C(F)(F)F)nc2n1-c1ccc2[nH]ncc2c1` [Example 232, 2-(1,1-Difluoropropyl)-3-(1H-indazol-5-yl)-5-(trifluoromethyl)imidazo[4,5-b]pyridine], with 15.8 nM; and `Cc1ccc2nc(C3CC3)n(-c3ccc4c(c3)CC(=O)N4)c2n1` [Example 87, 5-(2-Cyclopropyl-5-methyl-imidazo[4,5-b]pyridin-3-yl)indolin-2-one], with 79.4 nM; and `CC(C)c1nc2ccc(C(F)(F)F)nc2n1-c1cc(Br)c2[nH]ncc2c1` [Example 184, 3-(7-Bromo-1H-indazol-5-yl)-2-isopropyl-5-(trifluoromethyl)imidazo[4,5-b]pyridine], with 0.01 nM. Regarding `COC(C)c1cc2cccnc2n1-c1cc(C)c2c(c1)CC(=O)N2` (racemic) [Example 368, (RS)-5-[2-(1-Methoxyethyl)pyrrolo[2,3-b]pyridin-1-yl]-7-methyl-indolin-2-one], the IC50 was 31.6 nM. As for `Cc1cc(-n2c(CO)cc3ccc(C(F)(F)F)nc32)cc2c1NC(=O)C2` [Example 329, 5-(2-(Hydroxymethyl)-6-(trifluoromethyl)-1H-pyrrolo[2,3-b]pyridin-1-yl)-7-methylindolin-2-one], the figure is 1 nM; as for `Cc1cc2ccc(C(F)(F)F)nc2n1-c1ccc2[nH]ccc2c1` [Example 351, 1-(1H-Indol-5-yl)-2-methyl-6-(trifluoromethyl)pyrrolo[2,3-b]pyridine], 25.1 nM.
